Measurements reported in US11938136B2, “Compositions for treating spinal muscular atrophy” (Hoffmann-La Roche Inc., priority 2015, dated 2024).
In brackets after ≈: the same amount, converted by molar mass. Read-outs that look alike come from different tables or passages of the source.

Legend:
[1] = Solubility; format: physicochemical
[2] = Stability of olesoxime (solid state, oral suspension in sesame oil); format: physicochemical; conditions: 25° C./60% RH
Experimental: Examples of compositions comprising olexosime are described in US2010099652A1. […] Olesoxime has low aqueous solubility (less than 5 μg/ml) across the physiological pH range. It is freely soluble or soluble in a range of non-aqueous solvents.
7.5 g crystalline olesoxime powder (particle size distribution with d90 value 70-90 μm) was suspended in 75 ml (61.6 g) sesame oil (refined) as vehicle through agitation (e.g. shaking) to yield a homogeneous suspension (final olesoxime concentration 100 mg/ml).

[3] = system: patients with Types 2 and 3 SMA; conditions: two-year treatment period, compared with approximately two-point decline in the placebo arm; cited from earlier work
[4] = system: neonatal rats; conditions: cited from earlier work
[5] = system: adult mice; conditions: cited from earlier work
[6] = system: full length SMN2 minigene mRNA; assay: SMN2 minigene mRNA splicing RT-qPCR assay in cultured cells; format: cell-based, human; conditions: Homo sapiens, HEK293-H; HEK293H cells stably transfected with SMN2-A minigene, 24 hours, 7-point concentration curve; read-out: EC1.5x minigene
Description: The term “EC1.5x concentration for production of full length SMN2 minigene mRNA” (or “EC1.5x minigene”) is defined as that concentration of test compound that is effective in increasing the amount of full length SMN2 minigene mRNA to a level 1.5-fold greater relative to that in vehicle-treated cells.
The reverse transcription-quantitative PCR-based (RT-qPCR) assay is used to quantify the level of the full length SMN2 minigene (referred to herein by the term “FL SMN2mini”) mRNA containing SMN2 exon 7 in a HEK293H cell line stably transfected with said minigene and treated with a test compound. Materials used and respective sources are listed below in Table 1.
The SMN2-A minigene construct was prepared as described in International Patent Application WO2009/151546A1 page 145 paragraph [00400] to page 147 paragraph [00412](incl. FIG. 1 and FIG. 3 therein).
HEK293H cells stably transfected with the SMN2-A minigene construct (10,000 cells/well) are seeded in 200 μL of cell culture medium (DMEM plus 10% FBS, with 200 μg/mL hygromycin) in 96-well flat-bottom plates and the plate is immediately swirled to ensure proper dispersal of cells and the formation of an even monolayer of cells. Cells are allowed to attach for 6 hours. Test compounds are serially diluted 3.16-fold in 100% DMSO to generate a 7-point concentration curve. A solution of test compound (1 μL, 200× in DMSO) is added to each cell-containing well and the plate is incubated for 24 hours in a cell culture incubator (37° C., 5% CO2, 100% relative humidity). 2 replicates are prepared for each test compound concentration. The cells are then lysed in the Cells-To-Ct lysis buffer and the lysate is stored at −80° C.
Full length SMN2-A minigene and GAPDH mRNA are quantified using the primers and probes referenced in WO2014/209841A2 on page 80 in Table 1. Primer SMN Forward A (SEQ ID NO.1) hybridizes to a nucleotide sequence in exon 7 (nucleotide 22 to nucleotide 40), primer SMN Reverse A (SEQ ID NO.2) hybridizes to a nucleotide sequence in the coding sequence of Firefly luciferase, SMN Probe A (SEQ ID NO.3) hybridizes to a nucleotide sequence in exon 7 (nucleotide 50 to nucleotide 54) and exon 8 (nucleotide 1 to nucleotide 21). The combination of these three oligonucleotides detects only SMN1 or SMN2 minigenes (RT-qPCR) and will not detect endogenous SMN1 or SMN2 genes.
The SMN forward and reverse primers are used at final concentrations of 0.4 μM. The SMN probe is used at a final concentration of 0.15 μM. The GAPDH primers are used at final concentrations of 0.2 μM and the probe at 0.15 μM.
The SMN2-minigene GAPDH mix (15 μL total volume) is prepared by combining 7.5 μL of 2×RT-PCR buffer, 0.4 μL of 25×RT-PCR enzyme mix, 0.75 μL of 20×GAPDH primer-probe mix, 4.0075 μL of water, 2 μL of 10-fold diluted cell lysate, 0.06 μL of 100 μM SMN forward primer, 0.06 μL of 100 μM SMN reverse primer, and 0.225 μL of 100 μM SMN probe.
PCR is carried out at the following temperatures for the indicated time: Step 1: 48° C. (15 min); Step 2: 95° C. (10 min); Step 3: 95° C. (15 sec); Step 4: 60° C. (1 min); then repeat Steps 3 and 4 for a total of 40 cycles.
Each reaction mixture contains both SMN2-A minigene and GAPDH primers/probe sets (multiplex design), allowing simultaneous measurement of the levels of two transcripts.
The increase in the abundance of the FL SMN2mini mRNA relative to that in cells treated with vehicle control is determined from real-time PCR data using a modified ΔΔCt method (as described in Livak and Schmittgen, Methods, 2001, 25:402-8). The amplification efficiency E is calculated from the slope of the amplification curve for FL SMN2mini and GAPDH individually. The abundance of FL SMN2mini and GAPDH mRNA are then calculated as (1+E)^−Ct, where Ct is the threshold value for each amplicon. The abundance of FL SMN2mini mRNA is normalized to GAPDH mRNA abundance. […]

[7] = system: splicing events and expression levels of genes; conditions: Palacino et al, Nat Chem Biol. 2015, cited from earlier work

Row | Compound | EC (1.5-fold increase) [6] | further results
1 | CC(C)CCC[C@@H](C)[C@H]1CC[C@H]2[C@@H]3CCC4=C/C(=N/O)CC[C@]4(C)[C@H]3CC[C@]12C (stereo in doubt) [Olesoxime, Cholest-4-en-3-one oxime] | – | solubility ([1]; aqueous medium, aqueous buffer, across the physiological pH range, read-out: aqueous solubility): < 0.005 mg/mL; solubility ([1]; sesame oil, oil or lipid, read-out: solubility in sesame oil): ~35 mg/mL (≈ 87.6 mM); stable in the solid state [2]: > 36 months; motor function (motor function measure, MFM) [3]: maintenance of motor function; effect on motor neurons after nerve lesion [4]: rescues motor neurons from cell death; effect on nerve regeneration after nerve crush [5]: promotes nerve regeneration
2 | Cc1cn2nc(-c3cc(=O)n4cc(N5CCNC(C)(C)C5)ccc4n3)cc(C)c2n1 [Example 22, 2-(2,8-dimethylimidazo[1,2-b]pyridazin-6-yl)-7-(3,3-dimethylpiperazin-1-yl)pyrido[1,2-a]pyrimidin-4-one] | 0.0009 µM | –
3 | Cc1cn2nc(-c3cc(=O)n4cc(N5CCN[C@@H](C)C5)ccc4n3)cc(C)c2n1 [Example 8, 2-(2,8-dimethylimidazo[1,2-b]pyridazin-6-yl)-7-[(3S)-3-methylpiperazin-1-yl]pyrido[1,2-a]pyrimidin-4-one] | 0.0003 µM | –
4 | Cc1cn2nc(-c3cc(=O)n4cc(N5CCNC6(CC6)C5)cc(C)c4n3)cc(C)c2n1 [Example 28, 7-(4,7-diazaspiro[2.5]octan-7-yl)-2-(2,8-dimethylimidazo[1,2-b]pyridazin-6-yl)-9-methyl-pyrido[1,2-a]pyrimidin-4-one] | 0.005 µM | –
5 | CC1(C)CC(Oc2ccc(-c3ccc(-c4cn[nH]c4)cc3O)nn2)CC(C)(C)N1 [NVS-SM1] | – | candidate events where splicing changed in response to treatment [7]: 39; number of genes changed at greater than ±2-fold (p<0.05) ([7]; expression level): 175
6 | Cc1cn2nc(-c3cc(=O)n4cc(N5CCNC(C)(C)C5)cc(C)c4n3)ccc2n1 [Example 36, 7-(3,3-dimethylpiperazin-1-yl)-9-methyl-2-(2-methylimidazo[1,2-b]pyridazin-6-yl)pyrido[1,2-a]pyrimidin-4-one] | 0.005 µM | –
7 | Cc1cn2nc(-c3cc(=O)n4cc(N5CC[C@H](N6CCCC6)C5)ccc4n3)cc(C)c2n1 [Example 30, 2-(2,8-dimethylimidazo[1,2-b]pyridazin-6-yl)-7-[(3S)-3-pyrrolidin-1-ylpyrrolidin-1-yl]pyrido[1,2-a]pyrimidin-4-one] | 0.003 µM | –
8 | Cc1cn2nc(-c3cc(=O)n4cc(N5CCN6CCC[C@@]6(C)C5)ccc4n3)cc(C)c2n1 [Example 5, 7-[(8aS)-8a-methyl-1,3,4,6,7,8-hexahydropyrrolo[1,2-a]pyrazin-2-yl]-2-(2,8-dimethylimidazo[1,2-b]pyridazin-6-yl)pyrido[1,2-a]pyrimidin-4-one] | 0.0006 µM | –
9 | Cc1cn2nc(-c3cc(=O)n4cc(N5C[C@H](C)N[C@@H](C)C5)ccc4n3)cc(C)c2n1 [Example 29, 2-(2,8-dimethylimidazo[1,2-b]pyridazin-6-yl)-7-[(3S,5S)-3,5-dimethylpiperazin-1-yl]pyrido[1,2-a]pyrimidin-4-one] | 0.0003 µM | –
10 | Cc1cn2nc(-c3cc(=O)n4cc(N5C[C@H](C)N[C@@H](C)C5)cc(C)c4n3)ccc2n1 [Example 38, 7-[(3S,5S)-3,5-dimethylpiperazin-1-yl]-9-methyl-2-(2-methylimidazo[1,2-b]pyridazin-6-yl)pyrido[1,2-a]pyrimidin-4-one] | 0.0003 µM | –
11 | Cc1cn2nc(-c3cc(=O)n4cc(N5CCN[C@H](C)C5)ccc4n3)cc(C)c2n1 [Example 9, 2-(2,8-dimethylimidazo[1,2-b]pyridazin-6-yl)-7-[(3R)-3-methylpiperazin-1-yl]pyrido[1,2-a]pyrimidin-4-one] | 0.0001 µM | –
12 | Cc1cn2nc(-c3cc(=O)n4cc(N5CCN6CCC[C@H]6C5)ccc4n3)ccc2n1 [Example 15, 7-[(8aS)-3,4,6,7,8,8a-hexahydro-1H-pyrrolo[1,2-a]pyrazin-2-yl]-2-(2-methylimidazo[1,2-b]pyridazin-6-yl)pyrido[1,2-a]pyrimidin-4-one] | 0.004 µM | –
13 | CC[C@@H]1CN(c2ccc3nc(-c4ccc5nc(C)cn5n4)cc(=O)n3c2)CCN1 [Example 39, 7-[(3R)-3-ethylpiperazin-1-yl]-2-(2-methylimidazo[1,2-b]pyridazin-6-yl)pyrido[1,2-a]pyrimidin-4-one] | 0.0009 µM | –
14 | Cc1cn2nc(-c3cc(=O)n4cc(N5CCN[C@@H](C)C5)cc(C)c4n3)cc(C)c2n1 [Example 24, 2-(2,8-dimethylimidazo[1,2-b]pyridazin-6-yl)-9-methyl-7-[(3S)-3-methylpiperazin-1-yl]pyrido[1,2-a]pyrimidin-4-one] | 0.0004 µM | –
15 | Cc1cn2nc(-c3cc(=O)n4cc(N5CCN[C@H](C)C5)cc(C)c4n3)ccc2n1 [Example 34, 9-methyl-2-(2-methylimidazo[1,2-b]pyridazin-6-yl)-7-[(3R)-3-methylpiperazin-1-yl]pyrido[1,2-a]pyrimidin-4-one] | 0.0009 µM | –
16 | Cc1cn2nc(-c3cc(=O)n4cc(N5CCN[C@H](C)C5)cc(C)c4n3)cc(C)c2n1 [Example 25, 2-(2,8-dimethylimidazo[1,2-b]pyridazin-6-yl)-9-methyl-7-[(3R)-3-methylpiperazin-1-yl]pyrido[1,2-a]pyrimidin-4-one] | 0.0005 µM | –
17 | Cc1cn2nc(-c3cc(=O)n4cc(N5CCCNCC5)ccc4n3)ccc2n1 [Example 13, 7-(1,4-diazepan-1-yl)-2-(2-methylimidazo[1,2-b]pyridazin-6-yl)pyrido[1,2-a]pyrimidin-4-one] | 0.005 µM | –
18 | Cc1cn2nc(-c3cc(=O)n4cc(N5CCN[C@@H](C)C5)cc(C)c4n3)ccc2n1 [Example 33, 9-methyl-2-(2-methylimidazo[1,2-b]pyridazin-6-yl)-7-[(3S)-3-methylpiperazin-1-yl]pyrido[1,2-a]pyrimidin-4-one] | 0.0005 µM | –
